The results in this text go back to the NIST ThermoML archive (doi:10.1021/acs.jced.6b00361).

For series [1] the following is noted: Crystal; DTA.
A short description of series [2]: Molar enthalpy of transition or fusion. To be noted: Crystal; DSC.

Numbers after ± are expanded uncertainties.

As to `O=C(O)C=Cc1ccc(O)cc1` [3-(4-hydroxyphenyl)-2-propenoic acid], in series [1], the Normal melting temperature was 221.2 ± 0.5 °C. Also, the “Molar enthalpy of transition or fusion” value in series [2] turned out to be 8.2 ± 0.239 kcal/mol.
